Data from PubChem BioAssay AID2060619 (Molecular Pharmacology Branch, DTP, NCI, 2025).
pIC50: −log10 of the molar value.

Test system: 323965-272-R-J2-PDC complex spheroid viability
Assay: Anticancer human tumor 323965-272-R-J2-PDC patient-derived pancreatic carcinoma cell line growth inhibition [CLK]
Details: for pIC50: curve of first compound; for viability, T/C: stronger effect = lower value
Outline: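 Patient-derived tumor cells grown as complex spheroids with HUVEC endothelial cells and mesenchymal stem cells, treated with drug combinations. Concentrations descend in half-log steps from near clinical Cmax, or from 10 microM if Cmax unknown.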
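Note: spheroids exposed to agents for seven days before readout.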
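Throughout, for viability, T/C: percent of DMSO vehicle control wells so 100% = untreated growth.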

## Cn1ncnc1[C@H]1c2n[nH]c(=O)c3cc(F)cc(c23)N[C@@H]1c1ccc(F)cc1 + CNC(=O)c1ccc(Nc2nc(OC3CCCC3)c3c(-c4ccc5nc(C)oc5c4)c[nH]c3n2)c(OC)c1
Second compound 0.0316 µM
  pIC50: < 7.00
Second compound 0.1 µM
  pIC50: < 7.00
Second compound 0.316 µM
  pIC50: < 7.00
Second compound 1 µM
  pIC50: > 9.50
Second compound 3.16 µM
  pIC50: > 9.50
Second compound 10 µM
  pIC50: > 9.50
Second compound 0.0316 µM, first compound 0.000316 µM
  viability, T/C: 126%
Second compound 0.0316 µM, first compound 0.001 µM
  viability, T/C: 118%
Second compound 0.0316 µM, first compound 0.00316 µM
  viability, T/C: 104%
Second compound 0.0316 µM, first compound 0.01 µM
  viability, T/C: 110%
Second compound 0.0316 µM, first compound 0.0316 µM
  viability, T/C: 86.8%
Second compound 0.0316 µM, first compound 0.1 µM
  viability, T/C: 97.1%
Second compound 0.1 µM, first compound 0.000316 µM
  viability, T/C: 86.2%
Second compound 0.1 µM, first compound 0.001 µM
  viability, T/C: 75.3%
Second compound 0.1 µM, first compound 0.00316 µM
  viability, T/C: 78.9%
Second compound 0.1 µM, first compound 0.01 µM
  viability, T/C: 85.3%
Second compound 0.1 µM, first compound 0.0316 µM
  viability, T/C: 76.1%
Second compound 0.1 µM, first compound 0.1 µM
  viability, T/C: 66%
Second compound 0.316 µM, first compound 0.000316 µM
  viability, T/C: 69.6%
Second compound 0.316 µM, first compound 0.001 µM
  viability, T/C: 66.7%
Second compound 0.316 µM, first compound 0.00316 µM
  viability, T/C: 55.5%
Second compound 0.316 µM, first compound 0.01 µM
  viability, T/C: 67.8%
Second compound 0.316 µM, first compound 0.0316 µM
  viability, T/C: 70%
Second compound 0.316 µM, first compound 0.1 µM
  viability, T/C: 51.6%
Second compound 1 µM, first compound 0.000316 µM
  viability, T/C: 41.3%
Second compound 1 µM, first compound 0.001 µM
  viability, T/C: 45.5%
Second compound 1 µM, first compound 0.00316 µM
  viability, T/C: 48.5%
Second compound 1 µM, first compound 0.01 µM
  viability, T/C: 38.3%
Second compound 1 µM, first compound 0.0316 µM
  viability, T/C: 52%
Second compound 1 µM, first compound 0.1 µM
  viability, T/C: 43.4%
Second compound 3.16 µM, first compound 0.000316 µM
  viability, T/C: 36.7%
Second compound 3.16 µM, first compound 0.001 µM
  viability, T/C: 47.2%
Second compound 3.16 µM, first compound 0.00316 µM
  viability, T/C: 42.4%
Second compound 3.16 µM, first compound 0.01 µM
  viability, T/C: 43.9%
Second compound 3.16 µM, first compound 0.0316 µM
  viability, T/C: 51.5%
Second compound 3.16 µM, first compound 0.1 µM
  viability, T/C: 43.3%
Second compound 10 µM, first compound 0.000316 µM
  viability, T/C: 37.1%
Second compound 10 µM, first compound 0.001 µM
  viability, T/C: 36.6%
Second compound 10 µM, first compound 0.00316 µM
  viability, T/C: 42.6%
Second compound 10 µM, first compound 0.01 µM
  viability, T/C: 45.7%
Second compound 10 µM, first compound 0.0316 µM
  viability, T/C: 43.1%
Second compound 10 µM, first compound 0.1 µM
  viability, T/C: 43.1%

## CC(C)CC(NC(=O)C(Cc1ccccc1)NC(=O)c1cnccn1)B(O)O (centres undefined) + CNC(=O)c1ccc(Nc2nc(OC3CCCC3)c3c(-c4ccc5nc(C)oc5c4)c[nH]c3n2)c(OC)c1
Second compound 0.0316 µM
  pIC50: 8.46
Second compound 0.1 µM
  pIC50: 8.42
Second compound 0.316 µM
  pIC50: 8.51
Second compound 1 µM
  pIC50: 8.76
Second compound 3.16 µM
  pIC50: > 9.02
Second compound 10 µM
  pIC50: 8.99
Second compound 0.0316 µM, first compound 0.000949 µM
  viability, T/C: 144%
Second compound 0.0316 µM, first compound 0.003 µM
  viability, T/C: 57.1%
Second compound 0.0316 µM, first compound 0.00949 µM
  viability, T/C: 3.74%
Second compound 0.0316 µM, first compound 0.03 µM
  viability, T/C: 0.63%
Second compound 0.0316 µM, first compound 0.0949 µM
  viability, T/C: 0.4%
Second compound 0.0316 µM, first compound 0.3 µM
  viability, T/C: 1.5%
Second compound 0.1 µM, first compound 0.000949 µM
  viability, T/C: 97.1%
Second compound 0.1 µM, first compound 0.003 µM
  viability, T/C: 62.7%
Second compound 0.1 µM, first compound 0.00949 µM
  viability, T/C: 3.57%
Second compound 0.1 µM, first compound 0.03 µM
  viability, T/C: 0.66%
Second compound 0.1 µM, first compound 0.0949 µM
  viability, T/C: 0.72%
Second compound 0.1 µM, first compound 0.3 µM
  viability, T/C: 3.02%
Second compound 0.316 µM, first compound 0.000949 µM
  viability, T/C: 77.6%
Second compound 0.316 µM, first compound 0.003 µM
  viability, T/C: 51.5%
Second compound 0.316 µM, first compound 0.00949 µM
  viability, T/C: 3.56%
Second compound 0.316 µM, first compound 0.03 µM
  viability, T/C: 0.65%
Second compound 0.316 µM, first compound 0.0949 µM
  viability, T/C: 0.61%
Second compound 0.316 µM, first compound 0.3 µM
  viability, T/C: 0.43%
Second compound 1 µM, first compound 0.000949 µM
  viability, T/C: 62.9%
Second compound 1 µM, first compound 0.003 µM
  viability, T/C: 38%
Second compound 1 µM, first compound 0.00949 µM
  viability, T/C: 3.86%
Second compound 1 µM, first compound 0.03 µM
  viability, T/C: 0.86%
Second compound 1 µM, first compound 0.0949 µM
  viability, T/C: 1.19%
Second compound 1 µM, first compound 0.3 µM
  viability, T/C: 1.58%
Second compound 3.16 µM, first compound 0.000949 µM
  viability, T/C: 48.7%
Second compound 3.16 µM, first compound 0.003 µM
  viability, T/C: 28.7%
Second compound 3.16 µM, first compound 0.00949 µM
  viability, T/C: 1.87%
Second compound 3.16 µM, first compound 0.03 µM
  viability, T/C: 0.28%
Second compound 3.16 µM, first compound 0.0949 µM
  viability, T/C: 0.73%
Second compound 3.16 µM, first compound 0.3 µM
  viability, T/C: 1.18%
Second compound 10 µM, first compound 0.000949 µM
  viability, T/C: 51.6%
Second compound 10 µM, first compound 0.003 µM
  viability, T/C: 24.5%
Second compound 10 µM, first compound 0.00949 µM
  viability, T/C: 1.13%
Second compound 10 µM, first compound 0.03 µM
  viability, T/C: 0.33%
Second compound 10 µM, first compound 0.0949 µM
  viability, T/C: 0.86%
Second compound 10 µM, first compound 0.3 µM
  viability, T/C: 2.07%
